Laboratory results: publication PMC6040592 (Biochemistry, 2017)

Assays:
E. coli GlpG [1] = target: T1, E. coli GlpG (Escherichia coli, UniProt P09391); assay: GlpG in vitro activity assay; type: biochemical; conditions: read-out: IC50 [μM] GlpG; inhibitor preincubated 30 min at 37 °C, Gurken substrate, 90 min
[2] = tested on: nine different rhomboid proteases; assay: Activity-based probe; type: binding; conditions: 50 μM
bovine chymotrypsin = bovine chymotrypsin (Bos taurus, UniProt P00766); conditions: read-out: IC50 α-chymotrypsin, value reported in the literature; cited from earlier work
GlpG = GlpG (Escherichia coli, UniProt P09391); conditions: 1 h preincubation at 10 times IC50, 100-fold dilution, 100 min
GlpG, sequence (P09391 whole entry): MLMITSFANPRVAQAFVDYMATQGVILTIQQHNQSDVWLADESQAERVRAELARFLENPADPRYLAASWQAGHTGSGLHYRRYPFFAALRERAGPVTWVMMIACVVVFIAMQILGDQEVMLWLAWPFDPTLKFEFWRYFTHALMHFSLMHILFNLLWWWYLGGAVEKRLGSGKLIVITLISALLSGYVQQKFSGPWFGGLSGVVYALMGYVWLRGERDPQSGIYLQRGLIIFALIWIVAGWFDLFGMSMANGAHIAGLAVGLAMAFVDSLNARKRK

rhomboids = conditions: read-out: IC50 against rhomboids; isocoumarins; cited from earlier work
AaROM [3] = assay: AaROM in vitro activity assay; type: biochemical, Aquifex aeolicus
E. coli GlpG [4] = target: T1, E. coli GlpG
[5] = target: neutrophil elastase, ELA2 (Homo sapiens, UniProt P08246); conditions: same concentration range in which GlpG is inhibited
neutrophil elastase, ELA2, sequence (P08246 30-267): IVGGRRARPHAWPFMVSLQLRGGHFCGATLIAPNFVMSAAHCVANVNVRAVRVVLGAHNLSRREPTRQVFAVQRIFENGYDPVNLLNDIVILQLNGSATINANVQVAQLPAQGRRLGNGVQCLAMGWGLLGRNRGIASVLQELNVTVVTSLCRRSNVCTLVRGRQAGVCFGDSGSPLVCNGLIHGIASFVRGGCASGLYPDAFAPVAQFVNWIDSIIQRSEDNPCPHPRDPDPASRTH

wild-type GlpG = wild-type GlpG (Escherichia coli, UniProt P09391); conditions: 50 μM inhibitor, 23 °C overnight
wild-type GlpG, sequence (P09391 whole entry): as the sequence (P09391 whole entry) above

HiGlpG = HiGlpG (Haemophilus influenzae, UniProt P44783); assay: Activity-based probe; conditions: 50 μM
HiGlpG, sequence (P44783 whole entry): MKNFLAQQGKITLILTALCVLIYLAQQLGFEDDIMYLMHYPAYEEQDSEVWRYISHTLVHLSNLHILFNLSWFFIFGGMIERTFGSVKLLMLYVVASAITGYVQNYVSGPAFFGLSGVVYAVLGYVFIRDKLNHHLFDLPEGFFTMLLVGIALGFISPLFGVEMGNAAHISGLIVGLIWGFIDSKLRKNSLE

VcROM = assay: Activity-based probe; conditions: 50 μM
PsAarA = PsAarA (Providencia stuartii, UniProt P46116); assay: Activity-based probe; conditions: 50 μM
PsAarA, sequence (P46116 whole entry): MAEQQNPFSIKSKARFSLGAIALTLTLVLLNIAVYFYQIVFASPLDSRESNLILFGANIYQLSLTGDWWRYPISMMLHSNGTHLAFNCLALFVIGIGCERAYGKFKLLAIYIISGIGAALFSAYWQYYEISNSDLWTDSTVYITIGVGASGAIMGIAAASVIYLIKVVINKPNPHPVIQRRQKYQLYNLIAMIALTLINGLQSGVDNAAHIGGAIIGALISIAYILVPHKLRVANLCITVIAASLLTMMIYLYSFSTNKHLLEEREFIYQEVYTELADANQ

MjROM = assay: Activity-based probe; conditions: 50 μM
AaROM [6] = assay: Activity-based probe; conditions: 50 μM
TmROM = assay: Activity-based probe; conditions: 50 μM

T1 sequence (P09391 whole entry): as the sequence (P09391 whole entry) above

## O=c1oc(Cl)c(Cl)c2ccccc12 [DCI, dichloroisocoumarin]
E. coli GlpG [1]
  IC50: 19 µM
[2]
  inhibition of the activity of all nine rhomboids: 80–100%
Bovine chymotrypsin
  IC50: 2.8 µM

## COc1oc(=O)c2cc(N)ccc2c1Cl [JLK-6, reference compound]
GlpG
  recovery of GlpG activity after rapid dilution: No recovery of enzyme activity
rhomboids
  IC50: ~6 µM

## O=C(OCN1C(=O)c2ccccc2S1(=O)=O)c1ccccc1Cl [BSc5195]
AaROM [3]
  fold lower potency toward AaROM in comparison to GlpG: approximately 100 fold
E. coli GlpG [4]
  inhibition of ABP labelling, E. coli GlpG: active
[5]
  inhibition of neutrophil elastase, ELA2: appreciable inhibition
GlpG
  recovery of GlpG activity after rapid dilution: less but noticeable recovery of GlpG activity
wild-type GlpG
  mass shift of inhibitor-GlpG adduct: 195 Da
HiGlpG
  inhibition of ABP labelling, HiGlpG: active
VcROM
  inhibition of ABP labelling, VcROM: active
PsAarA
  inhibition of ABP labelling, PsAarA: active
MjROM
  inhibition of ABP labelling, MjROM: active
AaROM [6]
  inhibition of ABP labelling, AaROM: only partially inhibited
TmROM
  inhibition of ABP labelling, TmROM: only partially inhibited
